{"source": "patent US20110028566A1", "about": "“COMPOSITIONS AND PRODUCTS CONTAINING CYCLOALIPHATIC DIOL ANTIMICROBIAL AGENTS AND METHODS OF USING THE COMPOSITIONS AND PRODUCTS” (EASTMAN CHEMICAL COMPANY, priority 2009, published 2011)", "assay_type_in_all_cases": "cell-based", "key": {"Staphylococcus aureus": {"test_system": "Staphylococcus aureus", "test": "Microbial challenge testing in BPW", "details": "for Grade code, S. aureus, 3 Day / Grade code, S. aureus, 14 Day / Grade code, S. aureus, 30 Day: BPW, w/v % in label, average of replicates", "how_it_was_run": "(§1)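 Each organism, grown in TSB with 1% dextrose 96 h or more at 35 °C, was inoculated to 10^5–10^6 cfu/mL into BPW (pH 7.0, 1% dextrose) containing test materials at set w/v %. Broth-alone controls were run. Tubes were held 14 days at 35 °C, then at room temperature.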"}, "Streptococcus mutans": {"test_system": "Streptococcus mutans", "test": "Microbial challenge testing in BPW", "details": "for Grade code, S. mutans, 3 Day / Grade code, S. mutans, 13 Day / Grade code, S. mutans, 30 Days: BPW, w/v % in label, average of replicates", "how_it_was_run": "as §1"}, "Malassezia furfur": {"test_system": "Malassezia furfur", "test": "Challenge testing with pathogenic fungi in SDB", "details": "SDB with olive oil and Tween 80, w/v % in label, pellicle formation; for Grade code, Pathogenic Fungi, M. furfur, 14 Days: 14 days incubation; for Grade code, Pathogenic Fungi, M. furfur, 30 Days: 30 days incubation", "protocol": "(§2) Both M. canis and Trichophyton rubrum were grown on Sabouraud dextrose broth (SDB) (pH 5.6), while Malassezia fufur was grown in SDB supplemented with 2% (v/v) of olive oil and 0.2% (v/v) of Tween™ 80; incubation was at 22° C.±2° C. under continuous agitation by stirring for 10 days. The organisms were grown to a cell concentration of between 10^3 and 10^4 cfu/mL. The actual inoculation cell concentration of these challenges was determined by diluting in sterile buffer water and (spread-plate method) plating for enumeration.\n(§3) Challenge organisms were used to inoculate tubes containing each test material (CHDM, etc) or combination of test materials, at concentrations given in Table 5, in SDB (or for M. furfur, in SDB supplemented with olive oil and Tween™ 80). The inoculations were in the amount of 1.5 mL aliquots of each culture with static incubation at 22±2° C. Subcultures were made after 3-, 14-, and 30-days incubation. All challenges were conducted in triplicate. In the case of M. canis, the growth response was assessed by the visual presence or absence of growth in the tubes; in the case of T. rubrum, a respiratory dye (0.2% w/v aqueous INT solution: 2-(4-iodophenyl)-3-(4-nitrophenyl)-5-phenyl tetrazolium chloride) was added to the tubes, turning red if the organism was viable; and, finally, in the case of M. furfur, the growth response was assessed based upon visible pellicle formation in the tubes at the meniscus. The fungal growth in each tube was assigned a grade code as follows:\n(§4) 0: No visible growth 1: Some growth in tube 2: Moderate growth in tube 3: Good growth in tube 4: Extreme growth in tube\n(§5) All test material concentrations are given as w/v %. The grade codes given are the average of the grade codes for duplicate or triplicate samples.\n(§6) Table 5 compares the antimicrobial activity of 1,4-CHDM (AB) alone to 1,4-CHDM in combination with EDTA, phenoxyethanol (PE), and caprylyl glycol (CG). CHDM at 0.5% was tested with EDTA, and at 1.25 and 2.5% with EDTA, PE, and CG. (Note that the combination of CHDM with only EDTA was not tested against pathogenic fungi.) Results are also given for EDTA, PE, and CG alone, so the result for each mixture can be compared to the antimicrobial activity for each of its components individually. […] Possible synergies were determined by treating the grade code as an estimate of the log of the microbial count (log of cfu/mL). Log reductions can then be estimated by subtracting each grade code from the grade code for broth alone (grade code 5, except for the pathogenic fungi)."}, "Microsporum canis": {"test_system": "Microsporum canis", "test": "Challenge testing with pathogenic fungi in SDB", "details": "w/v % in label, visual growth in tubes; for Grade code, Pathogenic Fungi, M. canis, 14 Days: 14 days incubation; for Grade code, Pathogenic Fungi, M. canis, 30 Days: 30 days incubation", "protocol": "as §2, §3, §4, §5, §6"}, "[1]": {"details": "3 days incubation, listed as 0.5% AB"}, "[2]": {"details": "3 days incubation, listed as 1.25% AB"}, "[3]": {"details": "3 days incubation, listed as 2.5% AB"}, "[4]": {"details": "30 days incubation, listed as 0.5% AB"}, "[5]": {"details": "30 days incubation, listed as 1.25% AB"}, "[6]": {"details": "30 days incubation, listed as 2.5% AB"}}, "data": [{"smiles": "OCC1CCC(CO)CC1", "note": "(centres unmarked) [1,4-CHDM, 1,4-cyclohexanedimethanol]", "values": [{"measurement": "Grade code S. aureus", "setting": "Staphylococcus aureus; 0.5%, 3 days incubation", "result": "4 (1001 to 10,000 colonies (thus 10,000 cfu/mL to 100,000 cfu/mL))"}, {"measurement": "Grade code S. aureus", "setting": "Staphylococcus aureus; 0.5%, 14 days incubation", "result": "4 (1001 to 10,000 colonies (thus 10,000 cfu/mL to 100,000 cfu/mL))"}, {"measurement": "Grade code S. aureus", "setting": "Staphylococcus aureus; 0.5%, 30 days incubation", "result": "4 (1001 to 10,000 colonies (thus 10,000 cfu/mL to 100,000 cfu/mL))"}, {"measurement": "Grade code S. aureus", "setting": "Staphylococcus aureus; 1.25%, 3 days incubation", "result": "3 (101 to 1000 colonies (thus 1000 to 10,000 cfu/mL))"}, {"measurement": "Grade code S. aureus", "setting": "Staphylococcus aureus; 1.25%, 14 days incubation", "result": 2.7}, {"measurement": "Grade code S. aureus", "setting": "Staphylococcus aureus; 1.25%, 30 days incubation", "result": "4 (1001 to 10,000 colonies (thus 10,000 cfu/mL to 100,000 cfu/mL))"}, {"measurement": "Grade code S. aureus", "setting": "Staphylococcus aureus; 2.5%, 3 days incubation", "result": 1.7}, {"measurement": "Grade code S. aureus", "setting": "Staphylococcus aureus; 2.5%, 14 days incubation", "result": "1 (1 to 51 colonies counted (thus 10 to 510 cfu/mL))"}, {"measurement": "Grade code S. aureus", "setting": "Staphylococcus aureus; 2.5%, 30 days incubation", "result": "0 (No growth detected or <1 colony (thus <10 cfu/mL))"}, {"measurement": "Grade code, S. aureus, 3 Day", "setting": "Staphylococcus aureus; [1]", "result": "4 (1001 to 10,000 colonies (thus 10,000 cfu/mL to 100,000 cfu/mL))"}, {"measurement": "Grade code, S. aureus, 3 Day", "setting": "Staphylococcus aureus; [2]", "result": "3 (101 to 1000 colonies (thus 1000 to 10,000 cfu/mL))"}, {"measurement": "Grade code, S. aureus, 3 Day", "setting": "Staphylococcus aureus; [3]", "result": 1.7}, {"measurement": "Grade code, S. aureus, 14 Day", "setting": "Staphylococcus aureus; 14 days incubation, listed as 0.5% AB", "result": "4 (1001 to 10,000 colonies (thus 10,000 cfu/mL to 100,000 cfu/mL))"}, {"measurement": "Grade code, S. aureus, 14 Day", "setting": "Staphylococcus aureus; 14 days incubation, listed as 1.25% AB", "result": 2.7}, {"measurement": "Grade code, S. aureus, 14 Day", "setting": "Staphylococcus aureus; 14 days incubation, listed as 2.5% AB", "result": "1 (1 to 51 colonies counted (thus 10 to 510 cfu/mL))"}, {"measurement": "Grade code, S. aureus, 30 Day", "setting": "Staphylococcus aureus; [4]", "result": "4 (1001 to 10,000 colonies (thus 10,000 cfu/mL to 100,000 cfu/mL))"}, {"measurement": "Grade code, S. aureus, 30 Day", "setting": "Staphylococcus aureus; [5]", "result": "4 (1001 to 10,000 colonies (thus 10,000 cfu/mL to 100,000 cfu/mL))"}, {"measurement": "Grade code, S. aureus, 30 Day", "setting": "Staphylococcus aureus; [6]", "result": "0 (No growth detected or <1 colony (thus <10 cfu/mL))"}, {"measurement": "Grade code S. mutans", "setting": "Streptococcus mutans; 0.5%, 3 days incubation", "result": "4 (1001 to 10,000 colonies (thus 10,000 cfu/mL to 100,000 cfu/mL))"}, {"measurement": "Grade code S. mutans", "setting": "Streptococcus mutans; 0.5%, 13 days incubation", "result": "4 (1001 to 10,000 colonies (thus 10,000 cfu/mL to 100,000 cfu/mL))"}, {"measurement": "Grade code S. mutans", "setting": "Streptococcus mutans; 0.5%, 30 days incubation", "result": "4 (1001 to 10,000 colonies (thus 10,000 cfu/mL to 100,000 cfu/mL))"}, {"measurement": "Grade code S. mutans", "setting": "Streptococcus mutans; 1.25%, 3 days incubation", "result": "4 (1001 to 10,000 colonies (thus 10,000 cfu/mL to 100,000 cfu/mL))"}, {"measurement": "Grade code S. mutans", "setting": "Streptococcus mutans; 1.25%, 13 days incubation", "result": "2 (52 to 100 colonies counted (thus 520 to 1000 cfu/mL))"}, {"measurement": "Grade code S. mutans", "setting": "Streptococcus mutans; 1.25%, 30 days incubation", "result": "2 (52 to 100 colonies counted (thus 520 to 1000 cfu/mL))"}, {"measurement": "Grade code S. mutans", "setting": "Streptococcus mutans; 2.5%, 3 days incubation", "result": "2 (52 to 100 colonies counted (thus 520 to 1000 cfu/mL))"}, {"measurement": "Grade code S. mutans", "setting": "Streptococcus mutans; 2.5%, 13 days incubation", "result": "0 (No growth detected or <1 colony (thus <10 cfu/mL))"}, {"measurement": "Grade code S. mutans", "setting": "Streptococcus mutans; 2.5%, 30 days incubation", "result": "0 (No growth detected or <1 colony (thus <10 cfu/mL))"}, {"measurement": "Grade code, S. mutans, 3 Day", "setting": "Streptococcus mutans; [1]", "result": "4 (1001 to 10,000 colonies (thus 10,000 cfu/mL to 100,000 cfu/mL))"}, {"measurement": "Grade code, S. mutans, 3 Day", "setting": "Streptococcus mutans; [2]", "result": "4 (1001 to 10,000 colonies (thus 10,000 cfu/mL to 100,000 cfu/mL))"}, {"measurement": "Grade code, S. mutans, 3 Day", "setting": "Streptococcus mutans; [3]", "result": "2 (52 to 100 colonies counted (thus 520 to 1000 cfu/mL))"}, {"measurement": "Grade code, S. mutans, 13 Day", "setting": "Streptococcus mutans; 13 days incubation, listed as 0.5% AB", "result": "4 (1001 to 10,000 colonies (thus 10,000 cfu/mL to 100,000 cfu/mL))"}, {"measurement": "Grade code, S. mutans, 13 Day", "setting": "Streptococcus mutans; 13 days incubation, listed as 1.25% AB", "result": "2 (52 to 100 colonies counted (thus 520 to 1000 cfu/mL))"}, {"measurement": "Grade code, S. mutans, 13 Day", "setting": "Streptococcus mutans; 13 days incubation, listed as 2.5% AB", "result": "0 (No growth detected or <1 colony (thus <10 cfu/mL))"}, {"measurement": "Grade code, S. mutans, 30 Days", "setting": "Streptococcus mutans; [4]", "result": "4 (1001 to 10,000 colonies (thus 10,000 cfu/mL to 100,000 cfu/mL))"}, {"measurement": "Grade code, S. mutans, 30 Days", "setting": "Streptococcus mutans; [5]", "result": "2 (52 to 100 colonies counted (thus 520 to 1000 cfu/mL))"}, {"measurement": "Grade code, S. mutans, 30 Days", "setting": "Streptococcus mutans; [6]", "result": "0 (No growth detected or <1 colony (thus <10 cfu/mL))"}, {"measurement": "Grade code, Pathogenic Fungi, M. furfur, 3 Days", "setting": "Malassezia furfur; 3 days incubation", "result": 0}, {"measurement": "Grade code, Pathogenic Fungi, M. furfur, 14 Days", "setting": "Malassezia furfur; listed as 0.5% AB", "result": 1}, {"measurement": "Grade code, Pathogenic Fungi, M. furfur, 14 Days", "setting": "Malassezia furfur; listed as 1.25% AB", "result": 0}, {"measurement": "Grade code, Pathogenic Fungi, M. furfur, 14 Days", "setting": "Malassezia furfur; listed as 2.5% AB", "result": 0}, {"measurement": "Grade code, Pathogenic Fungi, M. furfur, 30 Days", "setting": "Malassezia furfur; listed as 0.5% AB", "result": 2}, {"measurement": "Grade code, Pathogenic Fungi, M. furfur, 30 Days", "setting": "Malassezia furfur; listed as 1.25% AB", "result": 0}, {"measurement": "Grade code, Pathogenic Fungi, M. furfur, 30 Days", "setting": "Malassezia furfur; listed as 2.5% AB", "result": 0}, {"measurement": "Grade code, Pathogenic Fungi, M. canis, 3 Days", "setting": "Microsporum canis; 3 days incubation", "result": 2}, {"measurement": "Grade code, Pathogenic Fungi, M. canis, 14 Days", "setting": "Microsporum canis; listed as 0.5% AB", "result": 1}, {"measurement": "Grade code, Pathogenic Fungi, M. canis, 14 Days", "setting": "Microsporum canis; listed as 1.25% AB", "result": 1}, {"measurement": "Grade code, Pathogenic Fungi, M. canis, 14 Days", "setting": "Microsporum canis; listed as 2.5% AB", "result": 0}, {"measurement": "Grade code, Pathogenic Fungi, M. canis, 30 Days", "setting": "Microsporum canis; listed as 0.5% AB", "result": 1}, {"measurement": "Grade code, Pathogenic Fungi, M. canis, 30 Days", "setting": "Microsporum canis; listed as 1.25% AB", "result": 1}, {"measurement": "Grade code, Pathogenic Fungi, M. canis, 30 Days", "setting": "Microsporum canis; listed as 2.5% AB", "result": 0}]}]}
